{"source": "ChEMBL document CHEMBL3044839", "about": "“Bisdesmosidic saponins from Securidaca longepedunculata roots: evaluation of deterrency and toxicity to Coleopteran storage pests” (2009)", "key": {"Callosobruchus maculatus [1]": {"tested_on": "Callosobruchus maculatus", "experiment": "Insecticidal activity against Callosobruchus maculatus in compound pretreated stored cowpea commodities assessed as decrease in number of adults emerging in F1 generation at 2.5 mg", "format": "functional, organism-based"}, "Callosobruchus maculatus [2]": {"tested_on": "Callosobruchus maculatus", "experiment": "Insecticidal activity against Callosobruchus maculatus in compound pretreated stored cowpea commodities assessed as decrease in egg hatching on the surface of seeds at 2.5 mg", "format": "functional, organism-based"}, "Callosobruchus maculatus [3]": {"tested_on": "Callosobruchus maculatus", "experiment": "Insecticidal activity against adult Callosobruchus maculatus in compound pretreated stored cowpea commodities assessed as decrease in number of oviposted eggs on the surface of seeds at 2.5 mg by choice bioassay", "format": "functional, organism-based"}, "Sitophilus zeamais [4]": {"tested_on": "Sitophilus zeamais", "experiment": "Insecticidal activity against adult Sitophilus zeamais in compound pretreated stored maize commodities assessed as mortality at 2.5 mg measured after 2 weeks", "format": "functional, organism-based"}, "Sitophilus zeamais [5]": {"tested_on": "Sitophilus zeamais", "experiment": "Insecticidal activity against adult Sitophilus zeamais in compound pretreated stored maize commodities assessed as decrease in number of damaged seeds at 2.5 mg measured after 2 weeks (reference value: >95%)", "format": "functional", "parameters": "scale not given: the % may be the effect or the level left"}}, "note": "Active and inactive are the calls of the source. The calls are words filed in the database; no cut-off is given here."}
{"compound": "COc1ccc(C=CC(=O)O[C@@H]2[C@H](O)[C@@H](O[C@@H]3O[C@@H](C)[C@H](O[C@@H]4OC[C@@H](O)[C@H](O[C@@H]5OC[C@H](O)[C@H](O)[C@H]5O)[C@H]4O)[C@@H](O[C@@H]4OC[C@](O)(CO)[C@H]4O)[C@H]3O)[C@H](OC(=O)[C@]34CCC(C)(C)C[C@H]3C3=CC[C@@H]5[C@@]6(C)C[C@H](O)[C@H](O[C@@H]7O[C@H](CO)[C@@H](O)[C@H](O)[C@H]7O)[C@@](C)(C(=O)O)[C@@H]6CC[C@@]5(C)[C@]3(C)CC4)O[C@@H]2C)cc1", "values": [{"measurement": "Activity", "setting": "Callosobruchus maculatus [1]", "value": "Active"}, {"measurement": "Activity", "setting": "Callosobruchus maculatus [2]", "value": "Active"}, {"measurement": "Activity", "setting": "Callosobruchus maculatus [3]", "value": "Active"}, {"measurement": "mortality", "setting": "Sitophilus zeamais [4]", "value": "Active"}, {"measurement": "Activity", "setting": "Sitophilus zeamais [5]", "value": "<35", "unit": "%"}]}
